Several values for one entry are separate records, joined by “and”; a condition that tells them apart may be missing. Equal entries are not always repeated.

In assay [1] the target is T1, Adenosine A2A receptor (Homo sapiens, UniProt P29274). Kind of assay: cAMP assay in 293A cells stably expressing the adenosine A2A receptor (CGS21680 stimulation, HTRF). Set-up: expressed in transfected cells; host or cells: 293A cells (Invitrogen, Cat# R705-07) infected with A2A-expressing lentivirus (custom packaged by Biosettia), puromycin selected. The settings on record: 293A-A2AR cells, 0.1% BSA. It counts as cell-based.
T1 sequence (P29274 whole entry): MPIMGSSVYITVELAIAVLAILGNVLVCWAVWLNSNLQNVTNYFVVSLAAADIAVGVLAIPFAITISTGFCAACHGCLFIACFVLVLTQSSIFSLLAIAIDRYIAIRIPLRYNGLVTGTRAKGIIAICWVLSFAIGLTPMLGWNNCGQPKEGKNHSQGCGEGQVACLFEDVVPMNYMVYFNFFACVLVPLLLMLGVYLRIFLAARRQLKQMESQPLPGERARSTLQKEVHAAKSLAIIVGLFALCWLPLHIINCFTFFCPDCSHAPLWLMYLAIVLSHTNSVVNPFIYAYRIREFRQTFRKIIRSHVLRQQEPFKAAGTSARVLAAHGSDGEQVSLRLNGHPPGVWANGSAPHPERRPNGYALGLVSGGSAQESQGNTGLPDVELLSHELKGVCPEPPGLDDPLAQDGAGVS

Assay [2] concerns the target T1, Adenosine A2A receptor. In words: Adenosine A2A receptor competitive binding assay (Tag-lite HTRF). The settings on record: Tag-lite adenosine A2A receptor ligand binding. The essentials: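 Compound displacement of a red fluorescent antagonist tracer (added at 60 nM stock) from donor-labelled, pre-transfected human A2A cells was read by HTRF after 2 h at room temperature; compound dilutions contained 0.6% DMSO.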

Assay [3] concerns p-CREB (phosphorylated cAMP response-element binding protein) in human whole blood. In words: p-CREB assay in human whole blood by flow cytometry (NECA stimulation, CD4 staining). It counts as cell-based. Conditions: Homo sapiens. Put shortly:
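Fresh human whole blood preincubated 1 h at room temperature with compounds (11-point 1:3 series from 30 uM) plus adenosine deaminase, then stimulated 30 min with NECA and Rolipram (10× additions of 50 uM stocks). Cells lysed/fixed, permeabilised, stained for p-CREB and CD4, read by flow cytometry.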

[4] abbreviates: 1 uM CGS, values separated by / are repeat determinations, read-out: cAMP (nM) 0.1% BSA, 1 uM CGS.
Setting [5] is: 2 h room temperature, values separated by / are repeat determinations.
Setting [6] is: values separated by / are repeat determinations.
Setting [7] is: 8 nM CGS, values separated by / are repeat determinations, read-out: cAMP (nM) 0.1% BSA, 8 nM CGS.
[8] abbreviates: 8 nM CGS, read-out: cAMP (nM) 0.1% BSA, 8 nM CGS.
Setting [9] is: 1 uM CGS, read-out: cAMP (nM) 0.1% BSA, 1 uM CGS.

Take `Cc1cc(-c2c(OCCN(C)c3ccccn3)nc(N)nc2-c2ccc(F)cc2)cc(C(F)F)n1` [Example 79, 5-(2-(difluoromethyl)-6-methylpyridin-4-yl)-4-(4-fluorophenyl)-6-(2-(methyl(pyridin-2-yl)amino)ethoxy)pyrimidin-2-amine]: the results for the IC50 in assay [1] (setting [4]), in assay [2] (setting [5]) and in assay [3] (setting [6]) were 1 nM, 0.51 nM and 11.2 nM, respectively.
The corresponding values for `Cc1cc(-c2c(OCc3ccccn3)nc(N)nc2-c2ccc(F)cc2)cc(C(F)F)n1` [Example 95, 5-(2-(difluoromethyl)-6-methylpyridin-4-yl)-4-(4-fluorophenyl)-6-(pyridin-2-ylmethoxy)pyrimidin-2-amine] are 12 nM, 0.24 nM and 14 nM.
Take `Cc1cc(-c2c(OCCNS(N)(=O)=O)nc(N)nc2-c2ccc(F)cc2)cc(C(F)(F)F)n1` [Example 111]: the IC50 was 2.2 nM and 1.1 nM in assay [1] (setting [7]); 4.1 nM in assay [2] (setting [5]); 1780 nM in assay [3] (setting [6]).
On to `CNS(=O)(=O)NCCOc1nc(N)nc(-c2ccccc2)c1-c1cc(C)nc(C(F)(F)F)c1` [Example 121], for which the IC50 in assay [1] (setting [7]) is 1.5 nM and 1.4 nM; in assay [1] (setting [4]), 55 nM and 139 nM; in assay [2] (setting [5]), 3.9 nM; in assay [3] (setting [6]) it was 478 nM.
Consider `Cc1cc(-c2c(OCCn3ccccc3=O)nc(N)nc2-c2ccc(F)cc2)cc(C(F)F)n1` [Example 122, 1-(2-((2-amino-5-(2-(difluoromethyl)-6-methylpyridin-4-yl)-6-(4-fluorophenyl)pyrimidin-4-yl)oxy)ethyl)pyridin-2(1H)-one], for which the IC50 was 0.88 nM and 0.69 nM in assay [1] (setting [7]); 35 nM and 53 nM in assay [1] (setting [4]); 1.8 nM in assay [2] (setting [5]); 63 nM in assay [3] (setting [6]).
Consider `CCc1c(COc2nc(N)nc(-c3ccc(F)cc3)c2-c2cc(C)nc(C(F)F)c2)nnn1CC` [Example 135, 4-((1,5-diethyl-1H-1,2,3-triazol-4-yl)methoxy)-5-(2-(difluoromethyl)-6-methylpyridin-4-yl)-6-(4-fluorophenyl)pyrimidin-2-amine], for which the IC50 in assay [1] (setting [7]) was 3.1 nM and 2.6 nM; in assay [1] (setting [4]), 77 nM; in assay [2] (setting [5]) it was 1.2 nM and 4.3 nM; in assay [3] (setting [6]), 93.2 nM.
`CCc1c(COc2nc(N)nc(-c3ccc(F)cc3)c2-c2cc(C)nc(C(F)F)c2)nnn1C` [Example 136, 5-(2-(difluoromethyl)-6-methylpyridin-4-yl)-4-((5-ethyl-1-methyl-1H-1,2,3-triazol-4-yl)methoxy)-6-(4-fluorophenyl)pyrimidin-2-amine]: the IC50 in assay [1] (setting [7]) is 2.3 nM; in assay [1] (setting [4]) it was 29 nM and 27 nM; in assay [2] (setting [5]) it was 0.6 nM and 1.1 nM; in assay [3] (setting [6]) it was 15.8 nM.
For the compound `Cc1cc(-c2c(OCCN(C)c3cccc(OCCO)n3)nc(N)nc2-c2ccc(F)cc2)cc(C(F)F)n1` [Example 154, 2-((6-((2-((2-amino-5-(2-(difluoromethyl)-6-methylpyridin-4-yl)-6-(4-fluorophenyl)pyrimidin-4-yl)oxy)ethyl)(methyl)amino)pyridin-2-yl)oxy)ethan-1-ol], the IC50 in assay [1] (setting [7]) was 1.3 nM; in assay [1] (setting [4]), 11 nM; in assay [2] (setting [5]), 1.4 nM and 4.2 nM; in assay [3] (setting [6]) it was 41.6 nM.
As to `Cc1cc(-c2c(OCc3nccn3CCC(=O)O)nc(N)nc2-c2ccc(F)cc2)cc(C(F)F)n1` [Example 204, 3-(2-(((2-amino-5-(2-(difluoromethyl)-6-methylpyridin-4-yl)-6-(4-fluorophenyl)pyrimidin-4-yl)oxy)methyl)-1H-imidazol-1-yl)propanoic acid], the IC50 stood at 24 nM in assay [1] (setting [8]), 13 nM in assay [2] (HTRF) and 456 nM in assay [3].
As to `Cc1cc(-c2c(OCc3nccn3C(C)CO)nc(N)nc2-c2ccc(F)cc2)cc(C(F)F)n1` (stereo not drawn) [Example 209, 2-(2-(((2-amino-5-(2-(difluoromethyl)-6-methylpyridin-4-yl)-6-(4-fluorophenyl)pyrimidin-4-yl)oxy)methyl)-1H-imidazol-1-yl)propan-1-ol], the IC50 in assay [1] (setting [8]) is 1.6 nM and 2.4 nM; in assay [1] (setting [9]), 84 nM and 97 nM; in assay [2] (HTRF), 1.9 nM and 4.2 nM; in assay [3], 125 nM.
With `Cc1cc(-c2c(OCc3cccc(C(C)(C)O)n3)nc(N)nc2-c2ccc(F)cc2)cc(C(F)F)n1` [Example 225], the IC50 in assay [1] (setting [9]) was 136 nM and 200 nM and 176 nM; in assay [2] (HTRF), 18.1 nM; in assay [3] it was 15.1 nM.

For the origin of these results see patent US20210355104A1, “ADENOSINE RECEPTOR BINDING COMPOUNDS” (Nikang Therapeuticsm Inc., priority 2018, published 2021).
